The subject of test [1] is Stage III triple negative breast cancer. Description: Clinical response of patients with triple negative breast cancer to combination therapy. Type of test: in vivo, human. The following applies: Patient #4; combination therapy of Herceptin and Lapatinib. An excerpt: Patient #4 represents a patient diagnosed with Stage III triple negative breast cancer (e.g., ER-, PR-, HER2-). The patient underwent radical mastectomy.
Patient #5 represents a patient diagnosed with Stage III triple negative breast cancer (e.g., ER-, PR-, HER2-). The patient underwent radical mastectomy.

Test [2] has as its system PI3K, HER2 and IGF1R activation. Kind of test: CEER pathway profile of Patient #5 samples before and after treatment. Type of test: in vivo, human. Particulars: Patient #5, after treatment vs baseline. An excerpt:
The samples were cerebrospinal fluid (CSF), fine needle aspirate (FNA) and a biopsy.

The subject of the next test is H1651. Kind of test: IC50 of the PI3K inhibitor drug (GDC0941) versus activated PI3K levels, H1651. The class given is cell-based, human. The following applies: H1651, cell line with PI3K activation. An excerpt: (§1) FIG. 13 illustrates that the CEER assay can be used to calculate the IC50 of an anti-cancer drug relative to the level of activated PI3K and other downstream components of the HER1/HER2/cMET pathway. […] In some cancer cells inhibition of PI3K activation corresponds to inhibition of activation of downstream proteins. In addition the extent of the inhibition is specific to the cell line and the inhibitor treatment.
(§2) The relationship between the IC50 of the PI3K inhibitor drug (GDC0941) and activated PI3K levels was analyzed in several cell lines. It was determined that cell lines (e.g., H1651 or H2087) with PI3K activation have low IC50. H1651 cells carry no known genetic mutations but have high EGFR expression. H2087 has NRAS and BRAF mutations. Cell lines (e.g., Calu-6) with two more alterations such as multiple mutations (e.g., MAPK mutations) and PI3K activation had high IC50 values. Thus, phospho-PI3K can be an indicator or predictor of sensitivity to PI3K inhibitors.

The next test relates to H2087. Kind of test: IC50 of the PI3K inhibitor drug (GDC0941) versus activated PI3K levels, H2087. The following applies: H2087, cell line with PI3K activation. The class given is cell-based, human.
From the text: as §1, §2

The subject of another test is Calu-6. Kind of test: IC50 of the PI3K inhibitor drug (GDC0941) versus activated PI3K levels, Calu-6. Type of test: cell-based, human. Particulars: Calu-6, two more alterations (multiple mutations and PI3K activation).
From the text: as §1, §2

In test [3] the test system is cell lines with inactive PTEN. Description: IC50 of the PI3K inhibitor in cell lines by PTEN status (FIG. 14). The class given is cell-based, human. Particulars: cell lines with inactive PTEN (point mutation or null mutation). The method, then:
as §2

A further test deals with cell line H460. Description: CEER pathway profiling of cell line H460 after PI3K inhibitor, MEK inhibitor or combination treatment. Type of test: cell-based, human. Particulars: PI3K inhibitor alone or in combination with a MEK inhibitor, day 8, 9, 12, 13, 4 hours or 24 hours of drug exposure. On the procedure:
(§3) In one particular embodiment, the proximity assay (e.g., CEER) for detecting the activation level or status of an analyte of interest comprises: • (i) incubating the cellular extract with one or a plurality of dilution series of capture antibodies to form a plurality of captured analytes; • (ii) incubating the plurality of captured analytes with detection antibodies comprising one or a plurality of activation state-independent antibodies and one or a plurality of activation state-dependent antibodies specific for the corresponding analytes to form a plurality of detectable captured analytes, • wherein the activation state-independent antibodies are labeled with a facilitating moiety, the activation state-dependent antibodies are labeled with a first member of a signal amplification pair, and the facilitating moiety generates an oxidizing agent which channels to and reacts with the first member of the signal amplification pair; • (iii) incubating the plurality of detectable captured analytes with a second member of the signal amplification pair to generate an amplified signal; and • (iv) detecting the amplified signal generated from the first and second members of the signal amplification pair.
The levels of other downstream signaling components of the pathway were measured, including HER1, HER2, cMET, PI3K, AKT, ERK, PTEN, MEK, p70S6K, PRAS40, RPS6 and PDK. […]

The subject of the next test is H1975 cells. Kind of test: CEER pathway profiling of H1975 cells after PI3K inhibitor, MEK inhibitor or combination treatment. The following applies: for levels of activated PI3K: H1975 cells treated with either PI3K inhibitor, MEK inhibitor, or combinations; for levels of other activated proteins (p-MEK, p-ERK, p-AKT, p-PRAS40, p-70S6K, and p-RPS6): H1975 cells, in response to treatment. The class given is cell-based, human. The method, then: as §3
The levels of other downstream signaling components of the pathway were measured, including HER1, HER2, cMET, PI3K, AKT, ERK, PTEN, MEK, p70S6K, PRAS40, RPS6 and PDK. Cell lines derived from non-small cell lung cancer such as NCI-H460, NCI-H647, NCI-H1155, NCI-1299, NCI-1975, NCI-H2228, and NCI-H661 were also used. The different therapies tested included a PI3K inhibitor alone at low or high dose, a MEK inhibitor alone at low or high dose, and a PI3K inhibitor plus a MEK inhibitor together at low dose or high dose. The cells were assayed at either 4 hours after treatment or 24 hours (see, * in FIGS. 6-10) after treatment.

Another test has as its system PI3K. Description: CEER profile of FNA sample of Patient #3 after PI3K inhibitor treatment. The class given is in vivo, human. The following applies: Patient #3, FNA sample after treatment; confirmed by CT scan. The method, then: In a retrospective study, a series of samples taken from patients with cancer were evaluated to determine if pathway profiling using the CEER assay is predictive of responsiveness to PI3K treatment. Samples analyzed included those from patients on a therapy time course, e.g., prior to receiving therapy, after initiating therapy, and during the course of therapy.
Following treatment with the PI3K inhibitor drug BAY806946, another sample was taken and analyzed. […] This finding was confirmed by CT scan.

For another test, the system named is PI3K-related pathways. Description: CEER-based analysis of BCA clinical samples from patients treated with BYL719. The class given is in vivo, human. On the procedure: CEER analysis includes normalizing the measured expression/activation levels of signaling transduction analytes against standard controls using statistical algorithms. In particular, Relative Fluorescence Unit (RFU) values are converted to Computed Units (CU), a standard functional unit of measure based on cell line controls with known levels of analyte expression. For each slide of the CEER assay, a standard curve of serial diluted cell lysate is prepared for a particular analyte-positive cell line (e.g., HER1-positive cell line is MDA-MB-468; HER2-positive cell line is SKBr3). Thus, normalized levels of each particular analyte and the degree of phosphorylation in each sample can be obtained against standard cell lines.
This example illustrates a CEER-based analysis of BCA clinical samples from patients treated with a PI3K inhibitor, BYL719 (Novartis). In particular, signaling pathway profiles from individual patients are shown to shift during the course of BYL719 treatment. Therefore, CEER-based analysis of PI3K-related pathways allows for responsive, individualized management of BYL719 treatment to improve clinical outcomes. Oncogenic receptor tyrosine kinases (HER1, HER2, HER3, cMET, IGF-1R, and cKIT) were quantified, as well as PI3K and other tyrosine kinase signaling cascade components including SHC, AKT, ERK, MEK, RSK, pRAS 40, RPS6, P70S6K, and PTEN. Levels of total protein and activated protein were measured.

Structures are written as SMILES.

Take `CS(=O)(=O)CCNCc1ccc(-c2ccc3ncnc(Nc4ccc(OCc5cccc(F)c5)c(Cl)c4)c3c2)o1` [Lapatinib, lapatinib]: the response to treatment entry in test [1] is recorded as “responded to treatment”. Also, in test [2], the “PI3K activation as well as HER2 and IGF1R activation” value is “decreased”.
Take `CS(=O)(=O)N1CCN(Cc2cc3nc(-c4cccc5[nH]ncc45)nc(N4CCOCC4)c3s2)CC1` [GDC0941]: the IC50 entry in the test with H1651 is listed as “low”; with H2087 it was “low”; with Calu-6 it was “high”. Besides, the “IC50 values compared with cell lines with PTEN wild-type status” value in test [3] was “higher”.
For `COc1c(OCCCN2CCOCC2)ccc2c1N=C(NC(=O)c1cnc(N)nc1)N1CCN=C21.Cl.Cl` [BAY841236], the “activated proteins of the HER1/HER2/cMET pathway (p-PI3K, p-AKT, p-PRAS40, p-70S6K, and p-RPS6)” value with cell line H460 is recorded as “downregulated”. Further, in the test on H1975 cells, the “levels of activated PI3K” value is on record as “relatively similar”; the “levels of other activated proteins (p-MEK, p-ERK, p-AKT, p-PRAS40, p-70S6K, and p-RPS6)” value is recorded as “greatly lower”.
As for `COc1c(OCCCN2CCOCC2)ccc2c1N=C(NC(=O)c1cnc(N)nc1)N1CCN=C21` [BAY806946], the “PI3K driven cell proliferation” value with PI3K is listed as “successfully inhibited”.
As to `COc1cc(F)c(F)c(Nc2ccc(I)cc2F)c1NS(=O)(=O)C1(C[C@H](O)CO)CC1` [BAY869766], in the test with H1975 cells, the “levels of activated PI3K” value is “relatively similar”; the “levels of other activated proteins (p-MEK, p-ERK, p-AKT, p-PRAS40, p-70S6K, and p-RPS6)” value was “greatly lower”.
As to `Cc1nc(NC(=O)N2CCC[C@H]2C(N)=O)sc1-c1ccnc(C(C)(C)C(F)(F)F)c1` [BYL719], in the test with PI3K-related pathways (Patient 1, Day 8 of treatment), the “level of activated HER3” value is listed as “increased”; the “p-AKT, p-pPRAS, p-P70S6, and p-RPS6” value is given as “downregulation”; the “total HER3 expression” value is recorded as “increased”. In the test on PI3K-related pathways (Patient 1, Day 28 of treatment), the “HER3 expression and activation” value is “higher than at Day 8”; the “p-AKT, p-PRAS, p-P70S6 and p-RPS6 levels” value is “higher than at Day 8”. Also, in the test on PI3K-related pathways (Patient 1, course of treatment), the “activation of PRAS40” value was “initial decrease in activation of PRAS40 was observed, followed by an increase”. Besides, in the test on PI3K-related pathways (Patient 1, upon treatment), the “activation of AKT” value was “decreased”; the “activation of HER3, ERK, MEK, and RSK” value was “increased”. In the test with PI3K-related pathways (Patient 2, Day 8 of treatment), the “p-AKT and p-PRAS” value is “downregulated”; the “p-MEK, p-ERK, and p-RSK” value is reported as “upregulated”. Moreover, the “p-AKT, p-PRAS, p-MEK, p-ERK, and p-RSK” value in the test with PI3K-related pathways (Patient 2, Day 28) is “down-regulated”. The “activation of ERK, MEK, and RSK” value in the test with PI3K-related pathways (Patient 2, course of treatment) is on record as “initial increase, followed by a decrease”. In the test on PI3K-related pathways (Patient 2, upon treatment), the “activation of AKT and PRAS40” value is listed as “decrease”. For the same compound, in the test with PI3K-related pathways (Patient 3, Day 8), the “activated HER1” value was “upregulated”; the “activated HER2, HER3 and cMET” value is recorded as “down-regulated”; the “levels of p-AKT, p-PRAS, p-MEK, p-ERK and p-RSK” value is “downregulated”. In addition, in the test on PI3K-related pathways (Patient 3, upon treatment), the RTK activation entry is given as “general decrease”. Besides, the PRAS40 activation result with PI3K-related pathways (Patient 4) is given as “decrease”. For the same compound, the “p-AKT, p-PRAS, p-MEK, p-ERK, and p-RSK” value in the test with PI3K-related pathways (Patient 4, Day 8) is “downregulation”. In addition, the PRAS40 activation entry in the test on PI3K-related pathways (Patient 5) is recorded as “decrease”. In addition, in the test with PI3K-related pathways (Patient 5, Day 8 of therapy), the “p-MEK, p-ERK and p-RSK levels” value is “Little change”. Besides, in the test on PI3K-related pathways (Patient 5, on therapy), the “P-AKT and p-RAS” value is listed as “slightly upregulated”; the p-RPS6 result is recorded as “highly upregulated”.

Values taken from patent US20140273006A1, “METHOD OF THERAPY SELECTION FOR PATIENTS WITH CANCER” (NESTEC S.A., priority 2011, published 2014).
